Reference: patent publication US11746124B2, “Chemoselective thiol-conjugation with alkene or alkyne-phosphonamidates” (FORSCHUNGSVERBUND BERLIN E.V., priority 2016, dated 2023)

Columns and labels:
[1] = Second order rate constant of glutathione addition to EDANS phosphonamidate, fluorescence HPLC; details: 0.1 mM amidate, 0.1 mM glutathione, 50 mM NH4HCO3, 1 mM EDTA, pH 8.5, 1% DMF
Method: To study the kinetics of the thiol addition to alkyne-phosphonamidates at low concentrations, a fluorescent EDANS-based phosphonamidate was synthesized as described in chapter 1.1. Addition of glutathione as a model substrate was probed over time by fluorescence HPLC. Peak integration and normalization to unconjugated EDANS as an internal standard was applied to determine the second order rate constant of the reaction. A second order rate constant of 37.32±0.41 I/mol*s was measured.
Glutathione addition to the EDANS-phosphonamidate was conducted at a final concentration of 0.1 mM amidate, 0.1 mM glutathione and 0.02 mM EDANS as an internal standard in 50 mM NH4HCO3-buffer containing 1 mM EDTA at pH 8.5 with 1% DMF. 2.5 μl of a 20 mM stock solution of EDANS-phosphonamidate in DMF was premixed with 488 μl buffer and 5 μl of a 2 mM stock solution of EDANS in a 1:1 mixture of DMF and buffer. The reaction was started by the addition of 5 μl of a 10 mM solution of glutathione in buffer. 10 μl samples were drawn at 0, 15, 30, 60, 120, 240 and 480 minutes and acidified with 190 μl 10 mM NaOAc-Buffer (pH 5.0) and subjected to fluorescence HPLC analysis.

[2] = Stability of a vinyl phosphonamidate to different pHs by 31P-NMR in aqueous buffers; type: physicochemical; details: room temperature
Excerpt: In a first experiment, Ethyl-N-phenyl-P-vinyl-phosphonamidate was chosen to measure stability.

[3] = Hydrolytic decay of the GSH-phosphonamidate conjugate in aqueous buffer, 31P NMR over 24 hours; type: physicochemical
Method: The conjugate could be isolated by semipreparative HPLC under basic conditions as a diastereomeric mixture in a yield of 61%. Having reasonable quantities of this water soluble phosphonamidate-conjugate in hand, studies could be performed in order to determine the hydrolytic properties of the phosphorus-nitrogen bond. For these studies a […] in aqeuous buffer was prepared and the hydrolysis of the phosphonamidate was characterized by monitoring the decay of the conjugate against the standard by means of ^31P NMR over 24 hours.

[4] = Rate of glutathione addition to ethyl-N-phenyl alkynyl phosphonamidate, HPLC-UV; details: reaction with glutathione, after 15 min at pH 8.5
Method: The rate of the reaction was determined by HPLC. Glutathione was added to a solution of ethyl-N-phenyl alkynyl phosphonamidate in aqueous buffer at slightly basic pH. The reaction was stopped after several time points by the addition of an acidic buffer and analyzed by HPLC-UV, referring to inosine as an internal standard. FIG. 2 refers to the consumption of ethyl-N-phenyl alkynyl phosphonamidate in the reaction with glutathione at pH 8.5. HPLC UV traces were taken at different time points. Experiment was performed in triplicate.

## C#CP(=O)(Nc1ccc(C(=O)NCCNc2cccc3c(S(=O)(=O)O)cccc23)cc1)OCC (stereo not drawn) [EDANS-based phosphonamidate, 5-((2-(O-Ethyl-P-ethynyl-phosphonamidato-N-benzoyl)ethyl)amino)naphthalene-1-sulfonic acid]
[1]
  second order rate constant of the thiol addition: 37.32±0.41 I/mol*s

## C=CP(=O)(Nc1ccccc1)OCC (stereo not drawn) [Ethyl-N-phenyl-P-vinyl-phosphonamidate]
[2]; aqueous buffers
  stability to different pHs over time: stable over a broad pH range
[2]; strong acidic conditions
  stability under strong acidic conditions: P—N-bond cleavage occurred

## CCOP(=O)(/C=C\SC[C@H](NC(=O)CC[C@H](N)C(=O)O)C(=O)NCC(=O)O)Nc1ccccc1 (stereo partly drawn) [GSH-phosphonamidate conjugate, (Ethyl-N-phenyl-P-ethenyl-phosphonamidate)-S-glutathion conjugate]
[3]; slight acidic conditions, 150 mM NH4OAc-buffer, pH 4.76
  hydrolytic decay of the conjugate: stable over the duration of the measurement
[3]; strong acidic conditions, 1 M HCL, pH 0.36
  hydrolytic decay of the conjugate: rapid decomposition

## C#CP(=O)(Nc1ccccc1)OCC (stereo not drawn) [alkynyl phosphonamidate, Ethyl-N-phenyl-P-ethynyl-phosphonamidate]
[4]
  conversion of the alkynyl phosphonamidate starting material: more than 95%
